Source: patent US20230391768A2, “IMIDAZOPYRIDINE DERIVATIVES AND AZA-IMIDAZOPYRIDINE DERIVATIVES AS JANUS KINASE 2 INHIBITORS AND USES THEREOF” (Dana-Farber Cancer Institute, Inc., priority 2018, published 2023)

Assays:
Assay in all cases: KINOMEscan
Assay type in all cases: binding
MAP4K3 = MAP4K3 (Homo sapiens (Human), UniProt Q8IVH8); conditions: read-out: percent of control
Experimental: (§1) In vitro profiling of Compound I-2 (1 μM) was performed using the DiscoveRx KINOMEscan® platform.

CLK1 = CLK1 (Homo sapiens (Human), UniProt P49759); conditions: read-out: percent of control
Experimental: as §1

FLT3 (R834Q) = FLT3 (R834Q) (Homo sapiens (Human), UniProt P36888, R834Q); conditions: read-out: percent of control
Experimental: as §1

EIF2AK1 = EIF2AK1 (Homo sapiens (Human), UniProt Q9BQI3); conditions: read-out: percent of control
Sequence of EIF2AK1 (Q9BQI3 whole entry): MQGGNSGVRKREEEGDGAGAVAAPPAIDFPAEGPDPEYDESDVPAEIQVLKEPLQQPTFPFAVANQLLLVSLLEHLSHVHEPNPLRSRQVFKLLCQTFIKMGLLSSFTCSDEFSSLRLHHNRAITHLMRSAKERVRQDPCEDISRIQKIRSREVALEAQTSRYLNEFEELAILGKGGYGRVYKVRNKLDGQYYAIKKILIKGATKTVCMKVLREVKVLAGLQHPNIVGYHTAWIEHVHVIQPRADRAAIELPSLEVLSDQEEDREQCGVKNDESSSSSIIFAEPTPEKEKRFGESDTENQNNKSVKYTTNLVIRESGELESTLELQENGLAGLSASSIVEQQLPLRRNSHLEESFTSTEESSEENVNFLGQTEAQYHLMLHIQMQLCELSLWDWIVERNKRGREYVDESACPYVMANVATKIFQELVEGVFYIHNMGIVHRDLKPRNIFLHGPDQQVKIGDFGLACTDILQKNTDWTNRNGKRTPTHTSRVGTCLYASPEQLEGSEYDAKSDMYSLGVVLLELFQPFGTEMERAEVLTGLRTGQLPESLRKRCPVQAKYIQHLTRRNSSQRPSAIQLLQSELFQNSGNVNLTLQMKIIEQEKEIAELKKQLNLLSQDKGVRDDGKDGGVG
Experimental: as §1

GRK3 = GRK3 (Homo sapiens (Human), UniProt P35626); conditions: read-out: percent of control
Experimental: as §1

FRK = FRK (Homo sapiens (Human), UniProt P42685); conditions: read-out: percent of control
Experimental: as §1

IRAK1 = IRAK1 (Homo sapiens (Human), UniProt P51617); conditions: read-out: percent of control
Experimental: as §1

PIK3CA = PIK3CA (Homo sapiens (Human), UniProt P42336); conditions: read-out: percent of control
Experimental: as §1

LIMK1 = LIMK1 (Homo sapiens (Human), UniProt P53667); conditions: read-out: percent of control
Experimental: as §1

FAK = FAK (Homo sapiens (Human), UniProt Q05397); conditions: read-out: percent of control
Sequence of FAK (Q05397 whole entry): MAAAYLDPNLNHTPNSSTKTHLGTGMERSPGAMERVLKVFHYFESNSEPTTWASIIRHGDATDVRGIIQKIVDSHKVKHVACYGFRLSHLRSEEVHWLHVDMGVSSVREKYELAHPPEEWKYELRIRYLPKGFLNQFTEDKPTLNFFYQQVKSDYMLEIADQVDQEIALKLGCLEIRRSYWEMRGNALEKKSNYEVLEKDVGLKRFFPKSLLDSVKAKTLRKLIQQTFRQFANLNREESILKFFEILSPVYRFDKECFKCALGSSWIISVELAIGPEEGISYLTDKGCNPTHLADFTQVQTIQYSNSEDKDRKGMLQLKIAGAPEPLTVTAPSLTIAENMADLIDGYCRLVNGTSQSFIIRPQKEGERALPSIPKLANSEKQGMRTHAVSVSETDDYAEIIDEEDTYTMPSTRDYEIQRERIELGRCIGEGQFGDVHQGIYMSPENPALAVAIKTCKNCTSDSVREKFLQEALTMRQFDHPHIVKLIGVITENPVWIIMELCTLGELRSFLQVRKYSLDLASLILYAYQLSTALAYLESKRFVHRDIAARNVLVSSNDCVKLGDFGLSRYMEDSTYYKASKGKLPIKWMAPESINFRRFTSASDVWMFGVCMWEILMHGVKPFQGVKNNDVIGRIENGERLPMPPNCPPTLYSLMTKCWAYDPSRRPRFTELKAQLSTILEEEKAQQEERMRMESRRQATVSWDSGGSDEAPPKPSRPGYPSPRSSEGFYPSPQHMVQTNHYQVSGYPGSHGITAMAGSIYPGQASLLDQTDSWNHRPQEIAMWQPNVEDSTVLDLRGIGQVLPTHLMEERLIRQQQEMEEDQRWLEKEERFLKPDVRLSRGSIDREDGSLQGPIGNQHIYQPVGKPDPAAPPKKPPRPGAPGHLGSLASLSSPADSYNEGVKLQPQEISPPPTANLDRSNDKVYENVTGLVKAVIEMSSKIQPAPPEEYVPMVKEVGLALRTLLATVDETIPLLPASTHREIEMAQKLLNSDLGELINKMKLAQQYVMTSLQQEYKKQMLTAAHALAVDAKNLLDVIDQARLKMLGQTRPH
Experimental: as §1

VEGFR2 = VEGFR2 (Homo sapiens (Human), UniProt P35968); conditions: read-out: percent of control
Experimental: as §1

ROCK2 = ROCK2 (Homo sapiens (Human), UniProt O75116); conditions: read-out: percent of control
Experimental: as §1

CSNK1E = CSNK1E (Homo sapiens (Human), UniProt P49674); conditions: read-out: percent of control
Experimental: as §1

MINK = MINK (Homo sapiens (Human), UniProt Q8N4C8); conditions: read-out: percent of control
Experimental: as §1

[1] = biological target: RPS6KA4 (Kin.Dom.2-C-terminal) (Homo sapiens (Human), UniProt O75676); conditions: read-out: percent of control
Experimental: as §1

CDC2L1 = CDC2L1 (Homo sapiens (Human), UniProt P21127); conditions: read-out: percent of control
Experimental: as §1

MYLK4 = MYLK4 (Homo sapiens (Human), UniProt Q86YV6); conditions: read-out: percent of control
Experimental: as §1

PRKG2 = PRKG2 (Homo sapiens (Human), UniProt Q13237); conditions: read-out: percent of control
Experimental: as §1

[2] = biological target: ABL1(E255K)-phosphorylated (Homo sapiens (Human), UniProt P00519, E255K); conditions: read-out: percent of control
Experimental: as §1

YSK4 = YSK4 (Homo sapiens (Human), UniProt Q56UN5); conditions: read-out: percent of control
Experimental: as §1

FLT3 (ITD) = conditions: 1 μM
Experimental: as §1

LTK = LTK (Homo sapiens (Human), UniProt P29376); conditions: read-out: percent of control
Experimental: as §1

CAMKK1 = CAMKK1 (Homo sapiens (Human), UniProt Q8N5S9); conditions: read-out: percent of control
Experimental: as §1

RIPK5 = RIPK5 (Homo sapiens (Human), UniProt Q6XUX3); conditions: read-out: percent of control
Experimental: as §1

CDK11 = CDK11 (Homo sapiens (Human), UniProt Q9BWU1); conditions: read-out: percent of control
Experimental: as §1

MEK1 = MEK1 (Homo sapiens (Human), UniProt Q02750); conditions: read-out: percent of control
Sequence of MEK1 (Q02750 whole entry): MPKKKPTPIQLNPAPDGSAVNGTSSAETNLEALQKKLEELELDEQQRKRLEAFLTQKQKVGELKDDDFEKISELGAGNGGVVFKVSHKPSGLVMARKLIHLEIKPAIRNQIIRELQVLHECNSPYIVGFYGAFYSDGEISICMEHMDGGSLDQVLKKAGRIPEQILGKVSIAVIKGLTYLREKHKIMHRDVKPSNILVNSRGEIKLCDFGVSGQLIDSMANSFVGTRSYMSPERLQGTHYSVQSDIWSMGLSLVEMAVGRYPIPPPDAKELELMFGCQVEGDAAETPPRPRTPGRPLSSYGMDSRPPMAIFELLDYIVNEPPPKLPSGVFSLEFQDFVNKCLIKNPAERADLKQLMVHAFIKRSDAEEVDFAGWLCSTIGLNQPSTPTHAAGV
Experimental: as §1

PIK3C2B = PIK3C2B (Homo sapiens (Human), UniProt O00750); conditions: read-out: percent of control
Experimental: as §1

CDK3 = CDK3 (Homo sapiens (Human), UniProt Q00526); conditions: read-out: percent of control
Experimental: as §1

PAK2 = PAK2 (Homo sapiens (Human), UniProt Q13177); conditions: read-out: percent of control
Experimental: as §1

TRPM6 = TRPM6 (Homo sapiens (Human), UniProt Q9BX84); conditions: read-out: percent of control
Experimental: as §1

CAMK4 = CAMK4 (Homo sapiens (Human), UniProt Q16566); conditions: read-out: percent of control
Experimental: as §1

BLK = BLK (Homo sapiens (Human), UniProt P51451); conditions: read-out: percent of control
Experimental: as §1

LKB1 = LKB1 (Homo sapiens (Human), UniProt Q15831); conditions: read-out: percent of control
Experimental: as §1

KIT(A829P) = KIT(A829P) (Homo sapiens (Human), UniProt P10721, A829P); conditions: read-out: percent of control
Experimental: as §1

GRK7 = GRK7 (Homo sapiens (Human), UniProt Q8WTQ7); conditions: read-out: percent of control
Experimental: as §1

ERK2 = ERK2 (Homo sapiens (Human), UniProt P28482); conditions: read-out: percent of control
Experimental: as §1

JNK3 = JNK3 (Homo sapiens (Human), UniProt P53779); conditions: read-out: percent of control
Experimental: as §1

HIPK4 = HIPK4 (Homo sapiens (Human), UniProt Q8NE63); conditions: read-out: percent of control
Sequence of HIPK4 (Q8NE63 whole entry): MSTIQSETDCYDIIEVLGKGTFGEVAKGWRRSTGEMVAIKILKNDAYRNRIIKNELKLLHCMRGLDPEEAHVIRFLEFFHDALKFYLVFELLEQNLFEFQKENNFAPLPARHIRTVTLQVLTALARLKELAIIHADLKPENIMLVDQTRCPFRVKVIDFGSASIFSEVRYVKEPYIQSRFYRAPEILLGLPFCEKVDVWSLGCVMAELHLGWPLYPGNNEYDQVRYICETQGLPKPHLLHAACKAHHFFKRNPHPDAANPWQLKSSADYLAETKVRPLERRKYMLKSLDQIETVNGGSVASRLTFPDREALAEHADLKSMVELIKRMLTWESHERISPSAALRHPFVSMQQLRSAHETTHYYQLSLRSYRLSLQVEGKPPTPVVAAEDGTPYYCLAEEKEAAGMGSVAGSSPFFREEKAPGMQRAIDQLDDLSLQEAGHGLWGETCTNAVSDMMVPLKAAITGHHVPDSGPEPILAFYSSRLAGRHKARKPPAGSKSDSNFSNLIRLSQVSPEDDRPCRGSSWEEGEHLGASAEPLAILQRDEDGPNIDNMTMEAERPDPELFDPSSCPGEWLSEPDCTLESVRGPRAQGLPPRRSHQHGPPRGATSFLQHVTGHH
Experimental: as §1

QSK = QSK (Homo sapiens (Human), UniProt Q9Y2K2); conditions: read-out: percent of control
Sequence of QSK (Q9Y2K2 whole entry): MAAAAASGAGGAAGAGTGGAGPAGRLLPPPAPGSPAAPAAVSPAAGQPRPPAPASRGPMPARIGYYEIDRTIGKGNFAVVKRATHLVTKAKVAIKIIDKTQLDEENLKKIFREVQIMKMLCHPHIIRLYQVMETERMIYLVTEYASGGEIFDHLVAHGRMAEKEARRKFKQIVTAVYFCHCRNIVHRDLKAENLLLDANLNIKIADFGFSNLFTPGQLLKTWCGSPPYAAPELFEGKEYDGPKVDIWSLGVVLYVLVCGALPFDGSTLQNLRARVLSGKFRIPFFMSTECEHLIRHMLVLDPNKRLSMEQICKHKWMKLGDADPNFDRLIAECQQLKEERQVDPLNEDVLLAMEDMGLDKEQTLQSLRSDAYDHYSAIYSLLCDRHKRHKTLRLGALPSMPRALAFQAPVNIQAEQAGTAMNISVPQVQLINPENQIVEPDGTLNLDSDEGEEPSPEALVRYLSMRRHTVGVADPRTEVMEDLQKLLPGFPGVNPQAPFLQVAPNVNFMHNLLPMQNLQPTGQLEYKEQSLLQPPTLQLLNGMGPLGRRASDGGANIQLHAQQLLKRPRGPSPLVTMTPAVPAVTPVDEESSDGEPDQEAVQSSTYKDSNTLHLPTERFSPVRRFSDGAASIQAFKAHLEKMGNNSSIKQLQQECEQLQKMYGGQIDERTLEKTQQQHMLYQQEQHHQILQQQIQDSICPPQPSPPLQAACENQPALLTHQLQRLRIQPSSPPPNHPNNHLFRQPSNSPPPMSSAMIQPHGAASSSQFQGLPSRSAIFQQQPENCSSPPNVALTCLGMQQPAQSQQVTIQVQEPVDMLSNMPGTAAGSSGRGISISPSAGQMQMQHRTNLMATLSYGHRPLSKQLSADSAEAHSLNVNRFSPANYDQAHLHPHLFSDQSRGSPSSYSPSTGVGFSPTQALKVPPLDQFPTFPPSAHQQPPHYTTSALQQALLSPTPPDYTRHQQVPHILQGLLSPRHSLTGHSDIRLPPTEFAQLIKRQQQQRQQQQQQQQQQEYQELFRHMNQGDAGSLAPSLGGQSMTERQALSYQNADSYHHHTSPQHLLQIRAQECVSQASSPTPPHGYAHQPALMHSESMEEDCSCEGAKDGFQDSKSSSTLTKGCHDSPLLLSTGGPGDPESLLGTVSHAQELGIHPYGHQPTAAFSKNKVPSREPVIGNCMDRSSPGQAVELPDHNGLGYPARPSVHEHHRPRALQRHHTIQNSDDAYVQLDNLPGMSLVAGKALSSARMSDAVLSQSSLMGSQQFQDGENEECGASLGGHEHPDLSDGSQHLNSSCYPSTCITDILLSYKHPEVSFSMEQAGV
Experimental: as §1

Sequence of MAP4K3 (Q8IVH8 whole entry): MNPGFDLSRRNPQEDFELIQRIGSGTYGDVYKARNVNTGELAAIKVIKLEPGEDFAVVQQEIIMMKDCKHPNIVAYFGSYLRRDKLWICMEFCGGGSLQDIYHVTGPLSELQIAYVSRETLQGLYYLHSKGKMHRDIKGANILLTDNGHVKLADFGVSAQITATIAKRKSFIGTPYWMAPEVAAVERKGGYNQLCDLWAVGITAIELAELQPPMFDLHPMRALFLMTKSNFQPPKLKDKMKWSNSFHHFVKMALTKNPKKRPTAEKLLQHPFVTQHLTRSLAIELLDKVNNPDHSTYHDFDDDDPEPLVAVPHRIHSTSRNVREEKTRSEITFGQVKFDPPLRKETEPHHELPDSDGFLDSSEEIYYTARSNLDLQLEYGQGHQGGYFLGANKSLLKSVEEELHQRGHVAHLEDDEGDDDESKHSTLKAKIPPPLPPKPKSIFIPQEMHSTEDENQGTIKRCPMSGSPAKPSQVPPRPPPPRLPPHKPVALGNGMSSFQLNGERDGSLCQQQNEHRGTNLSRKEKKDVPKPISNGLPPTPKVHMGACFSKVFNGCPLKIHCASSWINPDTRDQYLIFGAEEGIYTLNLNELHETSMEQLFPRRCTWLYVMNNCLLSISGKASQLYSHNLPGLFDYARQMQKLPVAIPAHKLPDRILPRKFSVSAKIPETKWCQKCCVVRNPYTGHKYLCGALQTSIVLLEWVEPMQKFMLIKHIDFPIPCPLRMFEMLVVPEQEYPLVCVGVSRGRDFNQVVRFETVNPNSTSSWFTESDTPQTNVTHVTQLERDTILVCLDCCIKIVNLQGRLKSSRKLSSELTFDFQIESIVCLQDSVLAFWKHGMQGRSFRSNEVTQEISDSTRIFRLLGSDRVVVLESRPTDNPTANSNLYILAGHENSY

| SMILES | remaining binding at 1 µM (MAP4K3) | remaining binding at 1 µM (CLK1) | remaining binding at 1 µM (FLT3 (R834Q)) | remaining binding at 1 µM (EIF2AK1) | remaining binding at 1 µM (GRK3) | remaining binding at 1 µM (FRK) | remaining binding at 1 µM (IRAK1) | remaining binding at 1 µM (PIK3CA) | remaining binding at 1 µM (LIMK1) | remaining binding at 1 µM (FAK) | remaining binding at 1 µM (VEGFR2) | remaining binding at 1 µM (ROCK2) | remaining binding at 1 µM (CSNK1E) | remaining binding at 1 µM (MINK) | remaining binding at 1 µM [1] | remaining binding at 1 µM (CDC2L1) | remaining binding at 1 µM (MYLK4) | remaining binding at 1 µM (PRKG2) | remaining binding at 1 µM [2] | remaining binding at 1 µM (YSK4) | other results |
| --- | --- | --- | --- | --- | --- | --- | --- | --- | --- | --- | --- | --- | --- | --- | --- | --- | --- | --- | --- | --- | --- |
| CCN1CCN(Cc2cc(NC(=O)c3ccc(C)c(-c4ccc5nc(NC(=O)C6CC6)cn5n4)c3)cc(C(F)(F)F)c2)CC1 [Compound I-2, 3-(2-(cyclopropanecarboxamido)imidazo[1,2-b]pyridazin-6-yl)-N-(3-((4-ethylpiperazin-1-yl)methyl)-5-(trifluoromethyl)phenyl)-4-methylbenzamide] | 3.4% | 7.9% | 1.5% | 100% | 87% | 3.9% | 18% | 78% | 87% | 1.9% | 1.4% | 82% | 86% | 0.6% | 79% | 44% | 96% | 100% | 0.5% | 30% | percent of control (FLT3 (ITD)): 1.6%; remaining binding at 1 µM (LTK): 3.3%; remaining binding at 1 µM (CAMKK1): 12%; remaining binding at 1 µM (RIPK5): 89%; remaining binding at 1 µM (CDK11): 0.6%; remaining binding at 1 µM (MEK1): 92%; remaining binding at 1 µM (PIK3C2B): 100%; remaining binding at 1 µM (CDK3): 5.7%; remaining binding at 1 µM (PAK2): 93%; remaining binding at 1 µM (TRPM6): 93%; remaining binding at 1 µM (CAMK4): 94%; remaining binding at 1 µM (BLK): 0.75%; remaining binding at 1 µM (LKB1): 73%; remaining binding at 1 µM (KIT(A829P)): 0%; remaining binding at 1 µM (GRK7): 100%; remaining binding at 1 µM (ERK2): 100%; remaining binding at 1 µM (JNK3): 85%; remaining binding at 1 µM (HIPK4): 32%; remaining binding at 1 µM (QSK): 92% |
| CCN1CCN(Cc2cc(NC(=O)c3ccc(C)c(-c4ccc5nc(NC(=O)C6CC6)cn5c4)c3)cc(C(F)(F)F)c2)CC1 [Compound I-6, 3-(2-(cyclopropanecarboxamido)imidazo[1,2-a]pyridin-6-yl)-N-(3-((4-ethylpiperazin-1-yl)methyl)-5-(trifluoromethyl)phenyl)-4-methylbenzamide] | 19% | 20% | 2.1% | 92% | 90% | 3.2% | 29% | 96% | 96% | 7.9% | 2% | 94% | 93% | 2.4% | 100% | 33% | 100% | 99% | 0.65% | 29% | percent of control (FLT3 (ITD)): 1.4%; remaining binding at 1 µM (LTK): 2%; remaining binding at 1 µM (CAMKK1): 53%; remaining binding at 1 µM (RIPK5): 100%; remaining binding at 1 µM (CDK11): 2.7%; remaining binding at 1 µM (MEK1): 94%; remaining binding at 1 µM (PIK3C2B): 100%; remaining binding at 1 µM (CDK3): 40%; remaining binding at 1 µM (PAK2): 70%; remaining binding at 1 µM (TRPM6): 78%; remaining binding at 1 µM (CAMK4): 96%; remaining binding at 1 µM (BLK): 0.2%; remaining binding at 1 µM (LKB1): 100%; remaining binding at 1 µM (KIT(A829P)): 12%; remaining binding at 1 µM (GRK7): 97%; remaining binding at 1 µM (ERK2): 100%; remaining binding at 1 µM (JNK3): 93%; remaining binding at 1 µM (HIPK4): 55%; remaining binding at 1 µM (QSK): 83% |
